From PubChem BioAssay AID504473 (NMMLSC, 2011)
The source made the active and inactive calls.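 Rule for the calls: active = GFP ratio to DMSO above 1.5 or below 0.66; inactive = the rest.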

Columns and labels:
Assay in all cases: expression changes of rapamycin-responsive GFP fusion proteins, S. cerevisiae, GFP-tagged clone panel, flow cytometry (AID 504473);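 note: median GFP fluorescence of the cells measured by high-throughput flow cytometry; test concentration not given here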
YBR139W = details: S. cerevisiae GFP-tagged strains, 3 h
YKR093W = details: S. cerevisiae GFP-tagged strains, 3 h
YJL056C = details: S. cerevisiae GFP-tagged strains, 3 h
YJR148W = details: S. cerevisiae GFP-tagged strains, 3 h
YER151C = details: S. cerevisiae GFP-tagged strains, 3 h
YIL051C = details: S. cerevisiae GFP-tagged strains, 3 h
YNL015W = details: S. cerevisiae GFP-tagged strains, 3 h
YIL066C = details: S. cerevisiae GFP-tagged strains, 3 h
YGR121C = details: S. cerevisiae GFP-tagged strains, 3 h
YHR203C = details: S. cerevisiae GFP-tagged strains, 3 h
YDR399W = details: S. cerevisiae GFP-tagged strains, 3 h
YOR182C = details: S. cerevisiae GFP-tagged strains, 3 h
YGR019W = details: S. cerevisiae GFP-tagged strains, 3 h
YGR034W = details: S. cerevisiae GFP-tagged strains, 3 h
YBR072W = details: S. cerevisiae GFP-tagged strains, 3 h
YHR018C = details: S. cerevisiae GFP-tagged strains, 3 h
YER156C = details: S. cerevisiae GFP-tagged strains, 3 h
YNR001C = details: S. cerevisiae GFP-tagged strains, 3 h
YPL150W = details: S. cerevisiae GFP-tagged strains, 3 h
YGR088W = details: S. cerevisiae GFP-tagged strains, 3 h
YKL103C = details: S. cerevisiae GFP-tagged strains, 3 h
YCL064C = details: S. cerevisiae GFP-tagged strains, 3 h
YFR031C-A = details: S. cerevisiae GFP-tagged strains, 3 h
YOR136W = details: S. cerevisiae GFP-tagged strains, 3 h
YMR251W-A = details: S. cerevisiae GFP-tagged strains, 3 h
YGL036W = details: S. cerevisiae GFP-tagged strains, 3 h
YKL119C = details: S. cerevisiae GFP-tagged strains, 3 h
YHR141C = details: S. cerevisiae GFP-tagged strains, 3 h
YEL071W = details: S. cerevisiae GFP-tagged strains, 3 h
YNL214W = details: S. cerevisiae GFP-tagged strains, 3 h
YDL130W = details: S. cerevisiae GFP-tagged strains, 3 h
YPL131W = details: S. cerevisiae GFP-tagged strains, 3 h
YKL086W = details: S. cerevisiae GFP-tagged strains, 3 h
YBL087C = details: S. cerevisiae GFP-tagged strains, 3 h
YOR038C = details: S. cerevisiae GFP-tagged strains, 3 h
YPR132W = details: S. cerevisiae GFP-tagged strains, 3 h
YHR144C = details: S. cerevisiae GFP-tagged strains, 3 h
YNL068C = details: S. cerevisiae GFP-tagged strains, 3 h
YEL060C = details: S. cerevisiae GFP-tagged strains, 3 h
YLR058C = details: S. cerevisiae GFP-tagged strains, 3 h
YOR375C = details: S. cerevisiae GFP-tagged strains, 3 h
YER081W = details: S. cerevisiae GFP-tagged strains, 3 h
YEL063C = details: S. cerevisiae GFP-tagged strains, 3 h
YLR237W = details: S. cerevisiae GFP-tagged strains, 3 h
YHR087W = details: S. cerevisiae GFP-tagged strains, 3 h
YMR105C = details: S. cerevisiae GFP-tagged strains, 3 h
YPL220W = details: S. cerevisiae GFP-tagged strains, 3 h
YEL007W = details: S. cerevisiae GFP-tagged strains, 3 h
YCR005C = details: S. cerevisiae GFP-tagged strains, 3 h
YML004C = details: S. cerevisiae GFP-tagged strains, 3 h
YNL142W = details: S. cerevisiae GFP-tagged strains, 3 h
YAL060W = details: S. cerevisiae GFP-tagged strains, 3 h
YDR453C = details: S. cerevisiae GFP-tagged strains, 3 h
YLL026W = details: S. cerevisiae GFP-tagged strains, 3 h
YPL111W = details: S. cerevisiae GFP-tagged strains, 3 h
YML026C = details: S. cerevisiae GFP-tagged strains, 3 h
YDR382W = details: S. cerevisiae GFP-tagged strains, 3 h
YML063W = details: S. cerevisiae GFP-tagged strains, 3 h
YLR142W = details: S. cerevisiae GFP-tagged strains, 3 h
YKR039W = details: S. cerevisiae GFP-tagged strains, 3 h
YGL062W = details: S. cerevisiae GFP-tagged strains, 3 h
YPR184W = details: S. cerevisiae GFP-tagged strains, 3 h
YKR094C = details: S. cerevisiae GFP-tagged strains, 3 h
YER117W = details: S. cerevisiae GFP-tagged strains, 3 h
YOR063W = details: S. cerevisiae GFP-tagged strains, 3 h
YLR185W = details: S. cerevisiae GFP-tagged strains, 3 h
YOR173W = details: S. cerevisiae GFP-tagged strains, 3 h
YLR109W = details: S. cerevisiae GFP-tagged strains, 3 h
YPR145W = details: S. cerevisiae GFP-tagged strains, 3 h
YBR208C = details: S. cerevisiae GFP-tagged strains, 3 h
YNL112W = details: S. cerevisiae GFP-tagged strains, 3 h
YMR307W = details: S. cerevisiae GFP-tagged strains, 3 h
YGL147C = details: S. cerevisiae GFP-tagged strains, 3 h
YAL061W = details: S. cerevisiae GFP-tagged strains, 3 h
YDR070C = details: S. cerevisiae GFP-tagged strains, 3 h
YOR371C = details: S. cerevisiae GFP-tagged strains, 3 h
YLR367W = details: S. cerevisiae GFP-tagged strains, 3 h
YMR120C = details: S. cerevisiae GFP-tagged strains, 3 h
YOL052C-A = details: S. cerevisiae GFP-tagged strains, 3 h
YIL043C = details: S. cerevisiae GFP-tagged strains, 3 h
YHL021C = details: S. cerevisiae GFP-tagged strains, 3 h
YIL052C = details: S. cerevisiae GFP-tagged strains, 3 h
YBR248C = details: S. cerevisiae GFP-tagged strains, 3 h
YJL144W = details: S. cerevisiae GFP-tagged strains, 3 h
YLR287C-A = details: S. cerevisiae GFP-tagged strains, 3 h
YML034W = details: S. cerevisiae GFP-tagged strains, 3 h
YPL265W = details: S. cerevisiae GFP-tagged strains, 3 h
YCR002C = details: S. cerevisiae GFP-tagged strains, 3 h
YDL204W = details: S. cerevisiae GFP-tagged strains, 3 h
[1] = biological target: General amino acid permease AGP1 (Saccharomyces cerevisiae S288c) (UniProt P25376); details: S. cerevisiae GFP-tagged strains, 3 h, YCL025C
YLL039C = details: S. cerevisiae GFP-tagged strains, 3 h
YDL205C = details: S. cerevisiae GFP-tagged strains, 3 h
YIL069C = details: S. cerevisiae GFP-tagged strains, 3 h
YGL135W = details: S. cerevisiae GFP-tagged strains, 3 h
YML128C = details: S. cerevisiae GFP-tagged strains, 3 h
YFR053C = details: S. cerevisiae GFP-tagged strains, 3 h

Sequence of General amino acid permease AGP1 (Saccharomyces cerevisiae S288c) (P25376 whole entry, looked up): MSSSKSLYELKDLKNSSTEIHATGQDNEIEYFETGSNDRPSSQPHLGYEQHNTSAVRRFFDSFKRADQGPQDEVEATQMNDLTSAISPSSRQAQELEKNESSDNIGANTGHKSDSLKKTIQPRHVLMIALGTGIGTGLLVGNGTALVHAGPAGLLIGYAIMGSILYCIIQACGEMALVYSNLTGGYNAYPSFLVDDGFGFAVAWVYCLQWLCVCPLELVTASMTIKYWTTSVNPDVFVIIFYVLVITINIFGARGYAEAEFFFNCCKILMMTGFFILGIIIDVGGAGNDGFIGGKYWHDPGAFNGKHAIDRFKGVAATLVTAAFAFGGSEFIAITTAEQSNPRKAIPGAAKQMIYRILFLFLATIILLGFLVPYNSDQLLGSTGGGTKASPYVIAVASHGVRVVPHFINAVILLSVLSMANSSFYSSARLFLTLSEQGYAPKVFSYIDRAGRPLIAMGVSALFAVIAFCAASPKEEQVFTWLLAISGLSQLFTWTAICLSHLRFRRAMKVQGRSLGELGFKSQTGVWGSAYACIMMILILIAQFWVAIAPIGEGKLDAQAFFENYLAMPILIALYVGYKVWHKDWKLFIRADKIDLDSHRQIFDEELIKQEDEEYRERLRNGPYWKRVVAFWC

CNc1nc(N)c([N+](=O)[O-])c(Nc2ccccc2)n1
GFP ratio to DMSO (YBR139W): 0.915 (inactive)
GFP ratio to DMSO (YKR093W): 1.17 (inactive)
GFP ratio to DMSO (YJL056C): 0.808 (inactive)
GFP ratio to DMSO (YJR148W): 1.26 (inactive)
GFP ratio to DMSO (YER151C): 0.943 (inactive)
GFP ratio to DMSO (YIL051C): 0.923 (inactive)
GFP ratio to DMSO (YNL015W): 0.929 (inactive)
GFP ratio to DMSO (YIL066C): 0.844 (inactive)
GFP ratio to DMSO (YGR121C): 0.942 (inactive)
GFP ratio to DMSO (YHR203C): 1.04 (inactive)
GFP ratio to DMSO (YDR399W): 0.947 (inactive)
GFP ratio to DMSO (YOR182C): 1.02 (inactive)
GFP ratio to DMSO (YGR019W): 0.906 (inactive)
GFP ratio to DMSO (YGR034W): 1.07 (inactive)
GFP ratio to DMSO (YBR072W): 0.795 (inactive)
GFP ratio to DMSO (YHR018C): 0.874 (inactive)
GFP ratio to DMSO (YER156C): 0.978 (inactive)
GFP ratio to DMSO (YNR001C): 1.05 (inactive)
GFP ratio to DMSO (YPL150W): 0.843 (inactive)
GFP ratio to DMSO (YGR088W): 0.924 (inactive)
GFP ratio to DMSO (YKL103C): 0.988 (inactive)
GFP ratio to DMSO (YCL064C): 0.878 (inactive)
GFP ratio to DMSO (YFR031C-A): 1.06 (inactive)
GFP ratio to DMSO (YOR136W): 1.11 (inactive)
GFP ratio to DMSO (YMR251W-A): 0.892 (inactive)
GFP ratio to DMSO (YGL036W): 0.822 (inactive)
GFP ratio to DMSO (YKL119C): 0.959 (inactive)
GFP ratio to DMSO (YHR141C): 1.04 (inactive)
GFP ratio to DMSO (YEL071W): 1.66
GFP ratio to DMSO (YNL214W): 1.01 (inactive)
GFP ratio to DMSO (YDL130W): 1.09 (inactive)
GFP ratio to DMSO (YPL131W): 1.14 (inactive)
GFP ratio to DMSO (YKL086W): 0.881 (inactive)
GFP ratio to DMSO (YBL087C): 1 (inactive)
GFP ratio to DMSO (YOR038C): 0.966 (inactive)
GFP ratio to DMSO (YPR132W): 1.18 (inactive)
GFP ratio to DMSO (YHR144C): 0.896 (inactive)
GFP ratio to DMSO (YNL068C): 0.902 (inactive)
GFP ratio to DMSO (YEL060C): 0.694 (inactive)
GFP ratio to DMSO (YLR058C): 0.838 (inactive)
GFP ratio to DMSO (YOR375C): 1.03 (inactive)
GFP ratio to DMSO (YER081W): 1.14 (inactive)
GFP ratio to DMSO (YEL063C): 1.03 (inactive)
GFP ratio to DMSO (YLR237W): 0.848 (inactive)
GFP ratio to DMSO (YHR087W): 0.827 (inactive)
GFP ratio to DMSO (YMR105C): 1.02 (inactive)
GFP ratio to DMSO (YPL220W): 1.01 (inactive)
GFP ratio to DMSO (YEL007W): 0.874 (inactive)
GFP ratio to DMSO (YCR005C): 1.37 (inactive)
GFP ratio to DMSO (YML004C): 0.838 (inactive)
GFP ratio to DMSO (YNL142W): 0.933 (inactive)
GFP ratio to DMSO (YAL060W): 0.91 (inactive)
GFP ratio to DMSO (YDR453C): 0.899 (inactive)
GFP ratio to DMSO (YLL026W): 1 (inactive)
GFP ratio to DMSO (YPL111W): 1.02 (inactive)
GFP ratio to DMSO (YML026C): 0.957 (inactive)
GFP ratio to DMSO (YDR382W): 1.14 (inactive)
GFP ratio to DMSO (YML063W): 1.07 (inactive)
GFP ratio to DMSO (YLR142W): 0.866 (inactive)
GFP ratio to DMSO (YKR039W): 0.804 (inactive)
GFP ratio to DMSO (YGL062W): 1.34 (inactive)
GFP ratio to DMSO (YPR184W): 0.886 (inactive)
GFP ratio to DMSO (YKR094C): 1.11 (inactive)
GFP ratio to DMSO (YER117W): 0.909 (inactive)
GFP ratio to DMSO (YOR063W): 1.07 (inactive)
GFP ratio to DMSO (YLR185W): 1.08 (inactive)
GFP ratio to DMSO (YOR173W): 0.941 (inactive)
GFP ratio to DMSO (YLR109W): 1.17 (inactive)
GFP ratio to DMSO (YPR145W): 1.17 (inactive)
GFP ratio to DMSO (YBR208C): 0.853 (inactive)
GFP ratio to DMSO (YNL112W): 1.12 (inactive)
GFP ratio to DMSO (YMR307W): 1.05 (inactive)
GFP ratio to DMSO (YGL147C): 1.05 (inactive)
GFP ratio to DMSO (YAL061W): 0.796 (inactive)
GFP ratio to DMSO (YDR070C): 0.918 (inactive)
GFP ratio to DMSO (YOR371C): 0.844 (inactive)
GFP ratio to DMSO (YLR367W): 1.06 (inactive)
GFP ratio to DMSO (YMR120C): 0.519
GFP ratio to DMSO (YOL052C-A): 0.961 (inactive)
GFP ratio to DMSO (YIL043C): 1.02 (inactive)
GFP ratio to DMSO (YHL021C): 1.07 (inactive)
GFP ratio to DMSO (YIL052C): 0.931 (inactive)
GFP ratio to DMSO (YBR248C): 0.927 (inactive)
GFP ratio to DMSO (YJL144W): 0.911 (inactive)
GFP ratio to DMSO (YLR287C-A): 1.1 (inactive)
GFP ratio to DMSO (YML034W): 0.814 (inactive)
GFP ratio to DMSO (YPL265W): 1.38 (inactive)
GFP ratio to DMSO (YCR002C): 0.929 (inactive)
GFP ratio to DMSO (YDL204W): 0.948 (inactive)
GFP ratio to DMSO [1]: 0.776 (inactive)
GFP ratio to DMSO (YLL039C): 0.733 (inactive)
GFP ratio to DMSO (YDL205C): 0.983 (inactive)
GFP ratio to DMSO (YIL069C): 1.11 (inactive)
GFP ratio to DMSO (YGL135W): 1.08 (inactive)
GFP ratio to DMSO (YML128C): 0.827 (inactive)
GFP ratio to DMSO (YFR053C): 0.83 (inactive)
